# Source: patent US7135492B2, “1,3-disubstituted-2- thioxo-imidazolidine-4,5-dione derivatives useful in the treatment of atherosclerosis” (Wyeth, priority 2001, dated 2006)
# Experiments:
# [1] = tested on: blood serum HDL cholesterol; assay: Determination of serum HDL cholesterol in cholesterol/cholic acid-fed rats; type: in vivo; conditions: Rattus norvegicus, feed or water, 192 h; male Sprague-Dawley rats, diet supplemented with 0.25% cholic acid and 1.0% cholesterol; 100 mg/kg mixed in diet; eight days; serum HDL-C by FPLC; read-out: HDL Cholesterol Level Increase (%)
# Experimental: The ability of the compounds of this invention to increase blood serum HDL levels was established by the following standard experimental procedure for determination of HDL cholesterol:
# Male Sprague-Dawley rats weighing 200–225 g were housed two per cage and fed Purina Rodent Chow Special Mix 5001-S supplemented with 0.25% cholic acid and 1.0% cholesterol and water ad libitum for 8 days. Each test substance was administered to a group of six rats fed the same diet with the test diet mixed in as 0.005–0.1% of the total diet. Body weight and food consumption were recorded prior to diet administration and at termination. Typical doses of the test substances are 5–100 mg/kg/day.
# At termination, blood was collected from anesthetized rats and the serum was separated by centrifugation. Total serum cholesterol was assayed using the Sigma Diagnostics enzymatic kit for the determination of cholesterol, Procedure No. 352, modified for use with ninety-six well microtiter plates. After reconstitution with water the reagent contained 300 U/I cholesterol oxidase, 100 U/I cholesterol esterase, 1000 U/I horseradish peroxidase, 0.3 mmoles/l 4-aminoantipyrine and 30.0 mmoles/l p-hydroxybenzenesulfonate in a pH 6.5 buffer. In the reaction, cholesterol was oxidized to produce hydrogen peroxide which is used to form a quinoneimine dye. The concentration of dye formed was measured spectrophotometrically by absorbance at 490 nm after incubation at 25° C. for 30 minutes. The concentration of cholesterol was determined for each serum sample relative to a commercial standard from Sigma.
# HDL cholesterol concentrations in serum were determined by separation of lipoprotein classes by fast protein liquid chromatography (FPLC) by a modification of the method of Kieft et al., J. Lipid Res., 32 (1991) 859–866. 25 ul of serum was injected onto Superose 12 and Superose 6 (Pharmacia), in series, with a column buffer of 0.05 M Tris (2-amino-2-hydroxymethyl-1,3-propanediol) and 0.15 M sodium chloride at a flow rate of 0.5 ml/min. The eluted sample was mixed on line with Boehringer-Mannheim cholesterol reagent pumped at 0.2 ml/min. The combined eluents were mixed and incubated on line through a knitted coil (Applied Biosciences) maintained at a temperature of 45 C. The eluent was monitored by measuring absorbance at 490 nm and gave a continuous absorbance signal proportional to the cholesterol concentration. The relative concentration of each lipoprotein class was calculated as the percent of total absorbance. HDL cholesterol concentration, in serum, was calculated as the percent of total cholesterol as determined by FPLC multiplied by the total serum cholesterol concentration.
# Test compounds were administered at a dose of 100 mg/kg. Each test substance is administered to a group of six rats. The duration of treatment was eight days.
SMILES,melting point [°C],change in vivo at 100 mg/kg [1] [%]
"Cc1cccc(C)c1N1C(=O)C(=O)N(C)C1=S [Example 6, 1-(2,6-Dimethylphenyl)-3-methyl-2-thioxo-4,5-imidazolidinedione]",144 to 146,227
"CCOC(=O)CON1C(=O)C(=O)N(c2ccccc2SC)C1=S [Example 2, Ethyl 2-({3-[2-(methylsulfanyl)phenyl]-4,5-dioxo-2-thioxo-1-imidazolidinyl}oxy)acetate]",112 to 114,196
"CCN1C(=O)C(=O)N(c2c(C)cccc2C)C1=S [Example 10, 1-(2,6-Dimethylphenyl)-3-ethyl-2-thioxo-4,5-imidazolidinedione]",103 to 105,36
"CCOC(=O)CON1C(=O)C(=O)N(c2cc(Cl)ccc2C)C1=S [Example 1, Ethyl 2-{[3-(5-chloro-2-methylphenyl)-4,5-dioxo-2-thioxo-1-imidazolidinyl]oxy}acetate]",157 to 159,242
"CCN1C(=O)C(=O)N(c2ccc(F)cc2)C1=S [Example 7, 1-Ethyl-3-(4-fluorophenyl)-2-thioxo-4,5-imidazolidinedione]",172 to 174,199

# Continued, in another order:
melting point [°C],SMILES,change in vivo at 100 mg/kg [1] [%]
171 to 173,"Cc1ccc(Cl)cc1N1C(=O)C(=O)N(C)C1=S [Example 5, 1-(5-Chloro-2-methylphenyl)-3-methyl-2-thioxo-4,5-imidazolidinedione]",186
162 to 164,"C#CCN1C(=O)C(=O)N(c2cc(Cl)ccc2C)C1=S [Example 9, 1-(5-Chloro-2-methylphenyl)-3-(2-propynyl)-2-thioxo-4,5-imidazolidinedione]",114
173 to 174,"CCN1C(=O)C(=O)N(c2cc(Cl)ccc2C)C1=S [Example 3, 1-(5-Chloro-2-methylphenyl)-3-ethyl-2-thioxo-4,5-imidazolidinedione]",19
161 to 162,"CCN1C(=O)C(=O)N(c2ccc(Cl)cc2C)C1=S [Example 8, 1-(4-Chloro-2-methylphenyl)-3-ethyl-2-thioxo-4,5-imidazolidinedione]",103
152 to 153,"CCN1C(=O)C(=O)N(c2cc(F)ccc2C)C1=S [Example 4, 1-Ethyl-3-(5-fluoro-2-methylphenyl)-2-thioxo-4,5-imidazolidinedione]",203
